Source: publication PMC12423841 (ACS Omega, 2025)

Tests used:
protein S (S:D614G) = protein S (S:D614G) (Severe acute respiratory syndrome coronavirus 2, UniProt P0DTC2, D614G); design: species or system SARS-CoV-2
[1] = molecular target: SWuhan (SARS-CoV-2 S protein HexaPro, Wuhan-Hu-1 variant) (Severe acute respiratory syndrome coronavirus 2, UniProt P0DTC2, A892P/A899P/A942P/F817P/K986P/V987P); type: binding; details: read-out: K D values SWuhan
[2] = molecular target: RBDWuhan (SARS-CoV-2 spike RBD, Wuhan-Hu-1 variant) (Severe acute respiratory syndrome coronavirus 2, UniProt P0DTC2); type: binding; details: read-out: K D values RBDWuhan
[3] = molecular target: RBDBA.1 (SARS-CoV-2 spike RBD, Omicron BA.1 variant) (Severe acute respiratory syndrome coronavirus 2, UniProt P0DTC2, E484A/G339D/G446S/G496S/K417N/N440K/N501Y/Q493R/Q498R/S371L/S373P/S375F/S477N/T478K/Y505H); type: binding; details: read-out: K D values RBDBA.1
[4] = molecular target: SBA.1 (SARS-CoV-2 S protein, Omicron BA.1 variant) (Severe acute respiratory syndrome coronavirus 2, UniProt P0DTC2, A67V/D614G/D796Y/DEL143-145/DEL211-211/DEL69-70/E484A/G142D/G339D/G446S/G496S/H655Y/INS214EPE/K417N/L212I/L981F/N440K/N501Y/N679K/N764K/N856K/N969K/P681H/Q493R/Q498R/Q954H/S371L/S373P/S375F/S477N/T478K/T547K/T95I/Y505H, form not given); type: binding; details: read-out: K D values SBA.1

CCCCCCCCc1ccc(CCC(N)(CO)CO)cc1 [fingolimod]
architecture of spikes by negative-stain electron microscopy (protein S (S:D614G)): do not damage the architecture of the proteins

catechin
Kd [1]: 927 ± 76 µM
Kd [2]: > 1000 µM
Kd [3]: > 1000 µM
Kd [4]: > 1000 µM
